Test results: ChEMBL document CHEMBL3508140 (2016)

Columns and labels:
[1] = Recovery of 7-deoxy epirubicinol aglycone following intraperitoneal epirubicin at 4 mg.Kg-1 dose in mouse; type: ADME, organism-based, CD-1, Plasma; details: in vivo, ip
[2] = Recovery of 7-deoxy epirubicinol aglycone following intravenous epirubicin at 4 mg.Kg-1 dose in rat; type: ADME, organism-based, SD, Plasma; details: in vivo
[3] = Recovery of 7-deoxy epirubicinol aglycone following intraperitoneal epirubicin at 4 mg.Kg-1 dose in hamster; type: ADME, organism-based, Cricetulus griseus, Plasma; details: chinese hamster, in vivo, ip
[4] = Recovery of 7-deoxy epirubicinol aglycone following intravenous epirubicin at 4 mg.Kg-1 dose in rabbit; type: ADME, organism-based, Oryctolagus cuniculus, New Zealand White, Plasma; details: in vivo
[5] = Recovery of 7-deoxy epirubicinol aglycone following intravenous epirubicin at 1.5 mg.Kg-1 dose in man; type: ADME, organism-based, Plasma; details: human, in vivo
[6] = Detection of 7-deoxydoxorubicinol aglycone in plasma following single intravenous epirubicin at 10 mg.Kg-1 dose in female mouse bearing colon tumor; type: ADME, organism-based, BALB/c; details: in vivo
[7] = Detection of 7-deoxydoxorubicinol aglycone in plasma following single intravenous doxorubicin at 10 mg.Kg-1 dose in female mouse bearing colon tumor; type: ADME, organism-based, BALB/c; design: dose 10 mg.Kg-1, dosed compound id 2.46809e+06, dosed compound name Doxorubicin, gender F, regimen Single, route intravenous, sampling time 48 h; details: in vivo
[8] = Detection of 7-deoxydoxorubicinol aglycone in heart following single intravenous epirubicin at 10 mg.Kg-1 dose in female mouse bearing colon tumor; type: ADME, organism-based, BALB/c; details: in vivo
[9] = Detection of 7-deoxydoxorubicinol aglycone in heart following single intravenous doxorubicin at 10 mg.Kg-1 dose in female mouse bearing colon tumor; type: ADME, organism-based, BALB/c; design: dose 10 mg.Kg-1, dosed compound id 2.46809e+06, dosed compound name Doxorubicin, gender F, regimen Single, route intravenous, sampling time 48 h; details: in vivo
[10] = Detection of 7-deoxydoxorubicinol aglycone in tumor following single intravenous epirubicin at 10 mg.Kg-1 dose in female mouse bearing colon tumor; type: ADME, organism-based, BALB/c, Neoplasm; details: in vivo
[11] = Detection of 7-deoxydoxorubicinol aglycone in tumor following single intravenous doxorubicin at 10 mg.Kg-1 dose in female mouse bearing colon tumor; type: ADME, organism-based, BALB/c, Neoplasm; design: dose 10 mg.Kg-1, dosed compound id 2.46809e+06, dosed compound name Doxorubicin, gender F, regimen Single, route intravenous, sampling time 48 h; details: in vivo
[12] = AUC values (0-48 h) of 7-deoxy doxorubicin-aglycone in plasma following single intravenous doxorubicin at 10 mg.Kg-1 dose in female mouse bearing colon tumor; type: ADME, organism-based, BALB/c; design: time < 48 hr, dose 10 mg.Kg-1, dosed compound id 2.46809e+06, dosed compound name Doxorubicin, gender F, regimen Single, route intravenous, sampling time 48 h; details: in vivo
[13] = AUC values (0-48 h) of 7-deoxy doxorubicin-aglycone in heart following single intravenous doxorubicin at 10 mg.Kg-1 dose in female mouse bearing colon tumor; type: ADME, organism-based, BALB/c; design: time < 48 hr, dose 10 mg.Kg-1, dosed compound id 2.46809e+06, dosed compound name Doxorubicin, gender F, regimen Single, route intravenous, sampling time 48 h; details: in vivo
[14] = AUC values (0-48 h) of 7-deoxy doxorubicin-aglycone in tumor following single intravenous doxorubicin at 10 mg.Kg-1 dose in female mouse bearing colon tumor; type: ADME, organism-based, BALB/c, Neoplasm; design: time < 48 hr, dose 10 mg.Kg-1, dosed compound id 2.46809e+06, dosed compound name Doxorubicin, gender F, regimen Single, route intravenous, sampling time 48 h; details: in vivo
[15] = AUC values (0-48 h) of 7-deoxy epirubicinol aglycone in plasma following single intravenous epirubicin at 10 mg.Kg-1 dose in female mouse bearing colon tumor; type: ADME, organism-based, BALB/c; details: in vivo
[16] = AUC values (0-48 h) of 7-deoxy epirubicinol aglycone in heart following single intravenous epirubicin at 10 mg.Kg-1 dose in female mouse bearing colon tumor; type: ADME, organism-based, BALB/c; details: in vivo
[17] = AUC values (0-48 h) of 7-deoxy epirubicinol aglycone in tumor following single intravenous epirubicin at 10 mg.Kg-1 dose in female mouse bearing colon tumor; type: ADME, organism-based, BALB/c, Neoplasm; details: in vivo

- Compound recovery [1]: 20 10^-9M
- Compound recovery [2]: 4.2 10^-9M
- Compound recovery [3]: 21 10^-9M
- Compound recovery [4]: 4.2 10^-9M
- Compound recovery [5]: 25 10^-9M
- Compound recovery [6]: OUTCOME = Observed
- Compound recovery [7]: OUTCOME = Observed
- Compound recovery [8]: OUTCOME = Observed
- Compound recovery [9]: OUTCOME = Observed
- Compound recovery [10]: OUTCOME = Observed
- Compound recovery [11]: OUTCOME = Observed
- AUC [12]: 83.3 nmol·min/mL
- AUC [13]: 218 nmol·min/g
- AUC [14]: 204 nmol·min/g
- AUC [15]: 53.9 nmol·min/mL
- AUC [16]: 66 nmol·min/g
- AUC [17]: 99 nmol·min/g
Structure (SMILES): COc1cccc2c1C(=O)c1c(O)c3c(c(O)c1C2=O)C[C@@](O)(C(O)CO)CC3 (some centres not stated)
